Converted amounts (≈) assume the structure as drawn.
Key:
MDA-MB-231/ATCC = assay: cells; settings: Homo sapiens, MDA-MB-231, 48 h; for CC50: read-out: LC50
DU-145 = assay: cells; settings: Homo sapiens, DU-145, 48 h; for CC50: read-out: LC50
HT29 = assay: cells; settings: Homo sapiens, HT-29, 48 h; for CC50: read-out: LC50
SF-539 = assay: cells; settings: Homo sapiens, SF-539, 48 h; for CC50: read-out: LC50, SF-539, 48 h
CAKI-1 = assay: cells; settings: Homo sapiens, CAKI-1, 48 h; for CC50: read-out: LC50
[1] = test system: Microsporum gypseum (CCC 115); assay: Antifungal broth microdilution (CLSI); format: cell-based; settings: Nannizzia gypsea; Mg: Microsporum gypseum
Procedure: Several of the obtained triazine derivatives were evaluated against sensitive fungal species comprising of two yeasts (Candida albicans (ATCC 10231), Cryptococcus neoformans (ATCC 32264)), three dermatophytes (Microsporum gypseum (CCC 115), Trichophyton rubrum (CCC 134-2000), Trichophyton mentagrophytes (CCC 202-2000)), and three Aspergillus fungi ((A. [NT] 26934), A. niger (ATCC 9029), and A. flavus (ATCC 9170)). […] Broth microdilution techniques were performed in 96-well microplates according to the Reference Method for Broth Dilution Antifungal Susceptibility Testing of Yeasts, document M27-A3 [86] and of Filamentous Fungi […]-A8 [87]. […] An inoculum suspension (100 μL) was added to each well (final well volume = 200 μL). One growth control well (containing medium, inoculum, and the same amount of DMSO as used for each compound) and one sterility control well (sample, medium, and sterile water instead of inoculum) were included for each fungus tested. Microtiter plates were incubated in a dark, humid chamber at 30 °C for the time necessary for each fungus. Amphotericin B, Terbinafine, Fluconazole and Itraconazole were used as a positive control. The tests were performed in triplicate.

T-47D = assay: cells; settings: Homo sapiens, T47D, 48 h; for CC50: read-out: LC50
SR = assay: cells; settings: Homo sapiens, 48 h; for CC50: read-out: LC50
OVCAR-3 = assay: cells; settings: Homo sapiens, OVCAR-3, 48 h; for CC50: read-out: LC50
[2] = Hemolytic activity, spectrophotometric; format: cell-based, human; settings: human, human red blood cells (huRBC), 5% hematocrit, 200 μg/mL, 37 °C
RXF 393 = assay: cells; settings: Homo sapiens, RXF 393, 48 h; for CC50: read-out: LC50
SK-OV-3 = assay: cells; settings: Homo sapiens, SK-OV-3, 48 h; for CC50: read-out: LC50
MOLT-4 = assay: cells; settings: Homo sapiens, MOLT-4, 48 h; for CC50: read-out: LC50
K-562 = assay: cells; settings: Homo sapiens, K562, 48 h; for GI50: K-562, 48 h; for CC50: read-out: LC50
LOX IMVI = assay: cells; settings: Homo sapiens, 48 h; for CC50: read-out: LC50, LOX IMVI, 48 h
HCC-2998 = assay: cells; settings: Homo sapiens, HCC 2998, 48 h; for CC50: read-out: LC50
MCF7 = assay: cells; settings: Homo sapiens, MCF7, 48 h; for CC50: read-out: LC50
MDA-MB-468 = assay: cells; settings: Homo sapiens, MDA-MB-468, 48 h; for CC50: read-out: LC50
PC-3 = assay: cells; settings: Homo sapiens, PC-3, 48 h; for CC50: read-out: LC50
HOP-92 = assay: cells; settings: Homo sapiens, HOP-92, 48 h; for CC50: read-out: LC50
NCI-H522 = assay: cells; settings: Homo sapiens, NCI-H522, 48 h; for CC50: read-out: LC50
A498 = assay: cells; settings: Homo sapiens, A498, 48 h; for CC50: read-out: LC50
UACC-62 = assay: cells; settings: Homo sapiens, UACC-62, 48 h; for CC50: read-out: LC50
TK-10 = assay: cells; settings: Homo sapiens, TK-10, 48 h; for CC50: read-out: LC50
HS 578T = assay: cells; settings: Homo sapiens, 48 h; for CC50: read-out: LC50
[3] = test system: N. gonorrhoeae ATCC 49226; assay: MIC on GC agar plates; format: cell-based, Neisseria gonorrhoeae; settings: Neisseria gonorrhoeae, ATCC49226, read-out: MIC
Procedure, shortened: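 N. gonorrhoeae (1 × 10^4 CFU) was spotted onto IsoVitaleX-supplemented (1%) GC agar containing graded compound levels. The lowest inhibitory concentration was recorded as the MIC, with oxidase testing used to verify growth, and each assay was done in duplicate on at least two separate occasions.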

[4] = test system: M. tuberculosis ATCC 27294; assay: Antitubercular broth microdilution MIC; format: cell-based; settings: Mycobacterium tuberculosis; M. tuberculosis ATCC 27294 (H37Rv); read-out: Minimum inhibitory concentration (MIC)
NCI/ADR-RES = assay: cells; settings: Homo sapiens, 48 h

CN(C)c1nc(NCCNS(=O)(=O)c2ccc(C3=Nc4c(N)nc(N)nc4NC(c4ccc(C(F)(F)F)cc4)C3)cc2)nc(N2CCOCC2)n1 (centres unmarked) [30g]
GI50 (MDA-MB-231/ATCC): 16.9 µM | CC50 (MDA-MB-231/ATCC): > 100 µM | GI50 (DU-145): 72 µM | CC50 (DU-145): > 100 µM | GI50 (HT29): 19.8 µM | CC50 (HT29): > 100 µM | GI50 (SF-539): 22.5 µM | CC50 (SF-539): > 100 µM | GI50 (CAKI-1): 25.9 µM | CC50 (CAKI-1): > 100 µM | MIC [1]: > 250 µg/mL | GI50 (T-47D): 21.3 µM | CC50 (T-47D): > 100 µM | GI50 (SR): 18.1 µM | CC50 (SR): > 100 µM | GI50 (OVCAR-3): 53.9 µM | CC50 (OVCAR-3): > 100 µM | hemolysis at 24 h, 200 µg/mL [2]: 2.4% | GI50 (RXF 393): 10.3 µM | CC50 (RXF 393): > 100 µM | GI50 (SK-OV-3): 69.7 µM | CC50 (SK-OV-3): > 100 µM | GI50 (MOLT-4): 17.3 µM | CC50 (MOLT-4): > 100 µM | GI50 (K-562): 29.1 µM | CC50 (K-562): > 100 µM | GI50 (LOX IMVI): 17.1 µM | CC50 (LOX IMVI): 64.1 µM | GI50 (HCC-2998): 20.2 µM | CC50 (HCC-2998): > 100 µM | GI50 (MCF7): 18.1 µM | CC50 (MCF7): > 100 µM | GI50 (MDA-MB-468): 13.7 µM | CC50 (MDA-MB-468): 69.5 µM | GI50 (PC-3): 24.6 µM | CC50 (PC-3): > 100 µM | GI50 (HOP-92): 7.48 µM | CC50 (HOP-92): > 100 µM | GI50 (NCI-H522): 51.7 µM | CC50 (NCI-H522): > 100 µM | GI50 (A498): 24.1 µM | CC50 (A498): > 100 µM | GI50 (UACC-62): 16.4 µM | CC50 (UACC-62): 81.1 µM | GI50 (TK-10): 54.3 µM | CC50 (TK-10): > 100 µM | GI50 (HS 578T): 19.2 µM | CC50 (HS 578T): > 100 µM

CN(C)c1nc(NCCNS(=O)(=O)c2ccc(C(=O)/C=C/c3ccc(Cl)cc3)cc2)nc(N2CCOCC2)n1 [23e]
GI50 (MDA-MB-231/ATCC): 13.3 µM | CC50 (MDA-MB-231/ATCC): 52.7 µM | GI50 (DU-145): 17.2 µM | CC50 (DU-145): 67.3 µM | GI50 (HT29): 3.21 µM | CC50 (HT29): 36.4 µM | GI50 (SF-539): 14.7 µM | CC50 (SF-539): 52.9 µM | GI50 (CAKI-1): 11.2 µM | CC50 (CAKI-1): 54.7 µM | MIC [1]: > 250 µg/mL | GI50 (T-47D): 16.7 µM | CC50 (T-47D): > 100 µM | GI50 (SR): 2.52 µM | CC50 (SR): > 100 µM | GI50 (OVCAR-3): 17.9 µM | CC50 (OVCAR-3): 70.5 µM | GI50 (RXF 393): 12.8 µM | CC50 (RXF 393): 57.1 µM | GI50 (SK-OV-3): 15.3 µM | CC50 (SK-OV-3): 59.5 µM | GI50 (MOLT-4): 3.38 µM | CC50 (MOLT-4): > 100 µM | GI50 (K-562): 3.71 µM | CC50 (K-562): > 100 µM | GI50 (LOX IMVI): 1.71 µM | CC50 (LOX IMVI): 6.13 µM | GI50 (HCC-2998): 16.7 µM | CC50 (HCC-2998): 56.7 µM | GI50 (MCF7): 2.37 µM | CC50 (MCF7): 34.6 µM | GI50 (MDA-MB-468): 11 µM | CC50 (MDA-MB-468): 56 µM | GI50 (PC-3): 13 µM | CC50 (PC-3): 67 µM | GI50 (HOP-92): 15.1 µM | CC50 (HOP-92): 67.8 µM | GI50 (NCI-H522): 14 µM | CC50 (NCI-H522): 53.3 µM | GI50 (A498): 12.4 µM | CC50 (A498): 50.8 µM | GI50 (UACC-62): 11.4 µM | CC50 (UACC-62): 49.1 µM | GI50 (TK-10): 15.8 µM | CC50 (TK-10): 54.7 µM | GI50 (HS 578T): 15.8 µM | CC50 (HS 578T): > 100 µM

CN(C)c1nc(NCCNS(=O)(=O)c2ccc(C3=Nc4c(N)nc(N)nc4NC(c4ccc(Cl)cc4)C3)cc2)nc(Nc2ccc(F)cc2)n1 (centres unmarked) [31e]
GI50 (MDA-MB-231/ATCC): 3.73 µM | CC50 (MDA-MB-231/ATCC): 65.7 µM | GI50 (DU-145): > 100 µM | CC50 (DU-145): > 100 µM | GI50 (HT29): 2.68 µM | CC50 (HT29): 7.54 µM | GI50 (SF-539): 3.3 µM | CC50 (SF-539): > 100 µM | GI50 (CAKI-1): 8.07 µM | CC50 (CAKI-1): > 100 µM | GI50 (T-47D): 7.93 µM | CC50 (T-47D): > 100 µM | GI50 (OVCAR-3): 7.45 µM | CC50 (OVCAR-3): > 100 µM | MIC [3]: 0.5 µg/mL (≈ 0.696 µM) | hemolysis at 24 h, 200 µg/mL [2]: 2.3% | MIC [4]: 1.2 µg/mL (≈ 1.67 µM) | GI50 (RXF 393): 2.27 µM | CC50 (RXF 393): 8.75 µM | GI50 (SK-OV-3): > 100 µM | CC50 (SK-OV-3): > 100 µM | GI50 (MOLT-4): 2.68 µM | GI50 (K-562): 3.08 µM | CC50 (K-562): > 100 µM | GI50 (LOX IMVI): 1.77 µM | CC50 (LOX IMVI): 3.55 µM | GI50 (HCC-2998): 3.14 µM | CC50 (HCC-2998): 18.4 µM | GI50 (MCF7): 2.89 µM | CC50 (MCF7): > 100 µM | GI50 (MDA-MB-468): 1.92 µM | CC50 (MDA-MB-468): 4.92 µM | GI50 (PC-3): 3.44 µM | CC50 (PC-3): > 100 µM | GI50 (NCI/ADR-RES): > 100 µM | CC50 (NCI/ADR-RES; read-out: LC50): > 100 µM | GI50 (HOP-92): 2.53 µM | CC50 (HOP-92): 13.2 µM | GI50 (NCI-H522): 16 µM | CC50 (NCI-H522): > 100 µM | GI50 (A498): 58.4 µM | CC50 (A498): > 100 µM | GI50 (UACC-62): 6.46 µM | CC50 (UACC-62): > 100 µM | GI50 (TK-10): > 100 µM | CC50 (TK-10): > 100 µM | GI50 (HS 578T): 7.15 µM | CC50 (HS 578T): > 100 µM
